From ChEMBL document CHEMBL4673352, “Discovery of AZD4573, a Potent and Selective Inhibitor of CDK9 That Enables Short Duration of Target Engagement for the Treatment of Hematological Malignancies” (J Med Chem, 2020)
In brackets after ≈: the same amount, converted by molar mass. Activity calls are given as the source filed them. The rule behind the calls is not given here.

How the values were obtained:
[1] = molecular target: CDK2/Cyclin A2 (Homo sapiens) (UniProt P24941+P20248); test: Inhibition of human recombinant full-length CDK2/CyclinA expressed in Sf21 insect cells using Histone H1 as substrate at 1 uM incubated for 40 mins in presence of [gamma32P]-ATP by scintillation counting method relative to control
[2] = Clearance in mouse plasma at […], iv formulated as solution; format: ADME, organism-based; conditions: dose 4.8 µmol/kg
[3] = Solubility of compound in pH 4 0.1 M acetate buffer using crystalline form of sample; format: physicochemical
[4] = Solubility of compound in pH 7.4 PBS buffer using crystalline form of sample; format: physicochemical
[5] = Clearance in Beagle dog plasma at 5.2 umol/kg, iv administered over 0.25 hrs formulated as solution in 5% DMSO; format: ADME, organism-based, Canis lupus familiaris; conditions: dose 5.2 µmol/kg
[6] = Half-life in mouse at […], iv formulated as solution; format: ADME, organism-based; conditions: in vivo
[7] = Half-life in Beagle dog at 5.2 umol/kg, iv administered over 0.25 hrs formulated as solution in 5% DMSO; format: ADME, organism-based, Canis lupus familiaris; conditions: in vivo, dose 5.2 µmol/kg
[8] = Clearance in mouse plasma at […], iv; format: ADME; conditions: dose 2.4 µmol/kg
Homo sapiens [9] = species: Homo sapiens; test: (§1) Selectivity ratio of IC50 for CDK3 (unknown origin) in presence of 5 mM ATP to IC50 for Inhibition of recombinant full length human N-terminal GST-fused CDK9 (1 to 372 residues)/His-tagged CyclinT1 (1 to 726 residues) expressed in baculovirus infected insect cells
[10] = Drug metabolism in human hepatocytes assessed as 3-(4-(2-((1S,3R)-3-acetamidocyclohexanecarboxamido)-5-fluoropyridin-4-yl)-1H-pyrazol-5-yl)-2,2-dimethylpropanoic acid metabolite formation; format: ADME, cell-based, Hepatocyte
[11] = Drug metabolism in human liver microsomes assessed as (1S,3R)-3-acetamido-N-(5-fluoro-4-(5-(3-hydroxy-2,2-dimethylpropyl)-1H-pyrazol-4-yl)pyridin-2-yl)cyclohexanecarboxamide formation at 10 uM measured after 1 hr in presence of NADPH by LC-UV-MS analysis; format: ADME, Microsome
Homo sapiens [12] = species: Homo sapiens; test: as §1, with “recombinant full length human His-tagged CDK1/CyclinB expressed” for “CDK3 (unknown origin)”, “baculovirus infected insect cells” for “presence of 5 mM ATP”
Homo sapiens [13] = species: Homo sapiens; test: Selectivity ratio of IC50 for recombinant full length human CDK2/CyclinE expressed in insect cells to IC50 for Inhibition of recombinant full length human N-terminal GST-fused CDK9 (1 to 372 residues)/His-tagged CyclinT1 (1 to 726 residues) expressed in baculovirus infected insect cells
[14] = Thermodynamic solubility of compound in pH 7.4 PBS buffer using crystalline form of sample; format: physicochemical; conditions: read-out: Therm_solubility
[15] = molecular target: Cyclin-dependent kinase 9 (Homo sapiens, UniProt P50750); test: Inhibition of CDK9 in human MCF7 cells assessed as reduction in RNA Polymerase 2 CTD phosphorylation at Ser2 residues measured after 6 hrs by immunofluorescence assay; format: cell-based
[16] = Clearance in mouse plasma at 2.3 umol/kg, iv formulated as solution; format: ADME, organism-based; conditions: dose 2.3 µmol/kg
[17] = molecular target: Mitogen-activated protein kinase 15 (Homo sapiens) (UniProt Q8TD08); test: Inhibition of human recombinant N-terminal FLAG-tagged ERK7 expressed in Sf9 insect cells at 0.1 uM incubated for 60 mins by TR-FRET based LanthaScreen Eu kinase binding assay relative to control
NOMO-1 [18] = test: Antitumor activity against human NOMO1 cells xenografted in CB17 SCID mouse assessed as tumor regression at 15 mg/kg, ip BID administered at 2 hrs dosing interval with 2 days on and 5 days off dosing schedule measured 12 days post initial dose; format: functional; conditions: time 12 day
[19] = Drug metabolism in human hepatocytes assessed 3-(4-(2-((1S,3R)-3-acetamidocyclohexanecarboxamido)-5-chloropyridin-4-yl)-1H-pyrazol-5-yl)-2,2-dimethylpropanoic acid metabolite formation; format: ADME, cell-based, Hepatocyte
[20] = molecular target: T1, Mitogen-activated protein kinase 8 (Homo sapiens, UniProt P45983); test: Inhibition of human recombinant His-tagged JNK1 expressed in baculovirus expression system at 0.1 uM incubated for 60 mins by TR-FRET based LanthaScreen Eu kinase binding assay relative to control
[21] = Drug metabolism in human hepatocytes assessed as (1S,3R)-3-acetamido-N-(5-chloro-4-(5-(3-hydroxy-2,2-dimethylpropyl)-1H-pyrazol-4-yl)pyridin-2-yl)cyclohexanecarboxamide metabolite formation; format: ADME, cell-based, Hepatocyte
[22] = molecular target: T1, Mitogen-activated protein kinase 8; test: Inhibition of human recombinant full-length JNK1 using ATF2 as substrate at1 uM incubated for 40 mins in presence of [gamma32P]-ATP by scintillation counting method relative to control; conditions: dose 1.0 µM
[23] = Volume of distribution at steady state in mouse at 2.3 umol/kg, iv formulated as solution; format: ADME, organism-based; conditions: in vivo, dose 2.3 µmol/kg, read-out: Vdss
[24] = Clearance in cynomolgus monkey plasma at 0.46 umol/kg, iv administered over 0.25 hrs formulated as solution in DMA/PEG400/Tween80; format: ADME, organism-based, Macaca fascicularis; conditions: dose 0.46 µmol/kg
[25] = Drug metabolism in human liver microsome assessed as (1S,3R)-3-acetamido-N-(5-chloro-4-(6-hydroxy-5,5-dimethyl-5,6-dihydro-4H-pyrrolo[1,2-b]pyrazol-3-yl)pyridin-2-yl)cyclohexanecarboxamide formation at 10 uM measured after 1 hr in presence of NADPH by LC-UV-MS analysis; format: ADME; conditions: microsomes
[26] = molecular target: Dual specificity tyrosine-phosphorylation-regulated kinase 2 (Homo sapiens, UniProt Q92630); test: Inhibition of DYRK2 (unknown origin) in presence of 5 mM ATP
[27] = molecular target: Casein kinase I isoform gamma-1 (Homo sapiens, UniProt Q9HCP0); test: Inhibition of CK1gamma1 (unknown origin) in presence of 5 mM ATP
[28] = Intrinsic clearance in monkey cryopreserved hepatocytes assessed per million cells […]; format: ADME, cell-based, Macaca mulatta, Hepatocyte; conditions: rhesus monkey, read-out: CLH
[29] = molecular target: Glycogen synthase kinase-3 beta (Homo sapiens, UniProt P49841); test: Inhibition of GSK3beta (unknown origin) at 0.1 uM incubated for 60 mins by TR-FRET based LanthaScreen Eu kinase binding assay relative to control
NOMO-1 [30] = test: Antitumor activity against human NOMO1 cells xenografted in CB17 SCID mouse assessed as cell death at 5 mg/kg, ip BID administered at 2 hrs dosing interval with 2 days on and 5 days off dosing schedule; format: functional, organism-based
[31] = Half-life in Beagle dog at 0.23 umol/kg, iv administered over 0.25 hrs formulated as solution in 10% DMSO/90% water; format: ADME, organism-based, Canis lupus familiaris; conditions: in vivo, dose 0.23 µmol/kg
[32] = Half-life in cynomolgus monkey at 0.46 umol/kg, iv administered over 0.25 hrs formulated as solution in DMA/PEG400/Tween80; format: ADME, organism-based, Macaca fascicularis; conditions: in vivo, dose 0.46 µmol/kg
MV4-11 = test: Antitumor activity against human MV4-11 cells xenografted in CB17 SCID mouse assessed as tumor growth inhibition at 5 mg/kg, ip BID administered at 2 hrs dose interval with 2 days on and 5 days off dosing schedule measured 33 days post initial dose; format: functional; conditions: MV4-11, ip, 792 h, time 33 day, read-out: TGI

T1 sequence (P45983 whole entry): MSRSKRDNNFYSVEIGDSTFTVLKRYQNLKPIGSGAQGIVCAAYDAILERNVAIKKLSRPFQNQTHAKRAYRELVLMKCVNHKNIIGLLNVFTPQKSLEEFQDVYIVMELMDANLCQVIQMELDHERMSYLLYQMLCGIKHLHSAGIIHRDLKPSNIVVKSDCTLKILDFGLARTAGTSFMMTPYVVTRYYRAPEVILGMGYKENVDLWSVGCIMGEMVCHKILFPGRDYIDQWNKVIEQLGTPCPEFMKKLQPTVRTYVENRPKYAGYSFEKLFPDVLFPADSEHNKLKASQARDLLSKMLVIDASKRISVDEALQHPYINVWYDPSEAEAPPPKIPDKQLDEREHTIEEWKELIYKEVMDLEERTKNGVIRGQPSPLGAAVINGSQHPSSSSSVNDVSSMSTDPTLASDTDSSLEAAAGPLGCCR
Cyclin-dependent kinase 9, sequence (P50750 whole entry): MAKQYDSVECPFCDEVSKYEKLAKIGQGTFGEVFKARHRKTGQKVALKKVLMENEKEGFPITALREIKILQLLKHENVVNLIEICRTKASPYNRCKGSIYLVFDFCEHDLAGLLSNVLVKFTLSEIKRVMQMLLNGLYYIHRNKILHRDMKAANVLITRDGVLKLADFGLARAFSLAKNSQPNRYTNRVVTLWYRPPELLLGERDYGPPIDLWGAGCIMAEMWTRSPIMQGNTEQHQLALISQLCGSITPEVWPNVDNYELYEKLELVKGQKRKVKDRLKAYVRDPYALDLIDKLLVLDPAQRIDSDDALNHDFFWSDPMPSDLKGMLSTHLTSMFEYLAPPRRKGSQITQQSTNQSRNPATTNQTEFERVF
Casein kinase I isoform gamma-1, sequence (Q9HCP0 whole entry, canonical isoform): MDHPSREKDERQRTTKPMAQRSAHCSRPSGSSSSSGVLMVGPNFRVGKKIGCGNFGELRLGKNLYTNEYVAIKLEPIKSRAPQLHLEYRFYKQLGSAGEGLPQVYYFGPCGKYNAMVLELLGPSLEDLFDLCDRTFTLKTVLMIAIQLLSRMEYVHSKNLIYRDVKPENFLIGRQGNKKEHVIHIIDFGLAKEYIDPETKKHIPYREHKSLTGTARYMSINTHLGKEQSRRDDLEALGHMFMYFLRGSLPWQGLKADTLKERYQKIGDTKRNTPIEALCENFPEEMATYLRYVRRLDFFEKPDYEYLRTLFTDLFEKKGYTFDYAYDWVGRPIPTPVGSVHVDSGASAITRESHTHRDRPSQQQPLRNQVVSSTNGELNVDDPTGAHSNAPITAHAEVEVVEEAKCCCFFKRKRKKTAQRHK
Dual specificity tyrosine-phosphorylation-regulated kinase 2, sequence (Q92630 whole entry, canonical isoform): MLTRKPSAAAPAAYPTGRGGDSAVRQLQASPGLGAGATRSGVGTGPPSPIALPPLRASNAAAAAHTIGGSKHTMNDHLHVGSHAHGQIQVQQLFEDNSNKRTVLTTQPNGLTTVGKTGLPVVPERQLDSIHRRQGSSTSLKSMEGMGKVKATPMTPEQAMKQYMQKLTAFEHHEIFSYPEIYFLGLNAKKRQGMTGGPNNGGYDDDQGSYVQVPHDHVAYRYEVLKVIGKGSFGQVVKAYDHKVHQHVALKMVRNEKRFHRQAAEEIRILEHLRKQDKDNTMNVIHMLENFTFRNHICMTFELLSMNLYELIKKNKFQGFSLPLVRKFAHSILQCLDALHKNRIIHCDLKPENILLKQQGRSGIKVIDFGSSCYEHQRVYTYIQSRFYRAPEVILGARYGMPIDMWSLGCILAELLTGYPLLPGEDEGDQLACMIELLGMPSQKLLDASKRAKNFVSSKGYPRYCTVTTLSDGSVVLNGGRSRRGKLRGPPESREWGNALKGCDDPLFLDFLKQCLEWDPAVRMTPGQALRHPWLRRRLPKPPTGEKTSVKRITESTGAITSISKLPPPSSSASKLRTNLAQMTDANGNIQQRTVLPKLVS
Glycogen synthase kinase-3 beta, sequence (P49841 whole entry, looked up): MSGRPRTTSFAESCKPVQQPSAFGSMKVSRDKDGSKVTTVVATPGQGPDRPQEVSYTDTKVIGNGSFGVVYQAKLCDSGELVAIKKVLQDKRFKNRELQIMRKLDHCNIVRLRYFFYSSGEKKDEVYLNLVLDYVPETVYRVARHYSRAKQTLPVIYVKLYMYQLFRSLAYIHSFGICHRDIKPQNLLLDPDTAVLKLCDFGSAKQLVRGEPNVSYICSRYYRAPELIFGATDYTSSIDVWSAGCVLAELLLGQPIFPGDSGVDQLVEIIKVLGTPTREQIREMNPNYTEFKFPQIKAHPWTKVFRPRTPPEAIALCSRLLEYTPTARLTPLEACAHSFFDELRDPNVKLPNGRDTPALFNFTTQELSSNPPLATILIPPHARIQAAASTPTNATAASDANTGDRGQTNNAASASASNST
Mitogen-activated protein kinase 15 (Homo sapiens), sequence (Q8TD08 whole entry): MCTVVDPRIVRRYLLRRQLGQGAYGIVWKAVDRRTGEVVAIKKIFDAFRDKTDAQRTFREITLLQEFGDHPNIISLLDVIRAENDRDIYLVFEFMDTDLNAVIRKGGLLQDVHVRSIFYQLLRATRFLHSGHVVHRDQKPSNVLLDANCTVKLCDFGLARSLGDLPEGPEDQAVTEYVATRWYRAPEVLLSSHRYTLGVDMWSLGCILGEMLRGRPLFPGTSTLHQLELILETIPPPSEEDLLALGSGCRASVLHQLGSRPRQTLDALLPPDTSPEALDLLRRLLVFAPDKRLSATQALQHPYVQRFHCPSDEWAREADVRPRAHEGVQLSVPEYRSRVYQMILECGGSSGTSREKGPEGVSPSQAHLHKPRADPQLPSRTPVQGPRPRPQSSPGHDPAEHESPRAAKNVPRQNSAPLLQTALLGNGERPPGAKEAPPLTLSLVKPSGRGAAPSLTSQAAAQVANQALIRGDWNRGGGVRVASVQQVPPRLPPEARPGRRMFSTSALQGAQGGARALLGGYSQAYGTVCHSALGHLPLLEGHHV

`CC(=O)N[C@@H]1CCC[C@H](C(=O)Nc2cc(-c3cnn4c3CCCC4)c(Cl)cn2)C1` showed an inhibition [1] of 93%, a clearance [2] of 65 mL/min/kg and a solubility thermodynamic [3] of 210 µg/mL (≈ 505 µM). It also gave a solubility thermodynamic [4] of 94 µg/mL (≈ 226 µM), a clearance [5] of 30 mL/min/kg and a half-life ([6]; dose 4.8 µmol/kg) of 27 min. For the same compound, the half-life [7] was 30 min.

For `CC(=O)N[C@@H]1CCC[C@H](C(=O)Nc2cc(-c3cnn4c3CC(C)(C)C4)c(F)cn2)C1`, the clearance [8] was 70 mL/min/kg, the Ratio IC50 (Homo sapiens [9]) was 5 and the Drug metabolism [10] was “Metabolite_Detected”. The inhibition [1] was 100%, the Drug metabolism [11] was “Metabolite_Detected” and the half-life ([6]; dose 2.4 µmol/kg) was 9.6 min. For the same compound, the Ratio IC50 (Homo sapiens [12]) was 16, the Ratio IC50 (Homo sapiens [13]) was 16 and the solubility thermodynamic [14] was 30 µg/mL (≈ 72.6 µM). For the same compound, the IC50 [15] was 0.025 µM.

In the case of `CC(=O)N[C@@H]1CCC[C@H](C(=O)Nc2cc(-c3cnn4c3CC(C)(C)C4)c(Cl)cn2)C1` [ZEMIRCICLIB], the clearance [16] is reported as 55 mL/min/kg, the inhibition [17] is reported as 83% and the Activity (NOMO-1 [18]) is reported as 65%. The Drug metabolism [19] was “Metabolite_Detected”, the inhibition [20] was 84% and the Drug metabolism [21] was “Metabolite_Detected”. It also gave an inhibition [22] of 90%, a Vd [23] of 0.45 L/kg and a clearance [24] of 19 mL/min/kg. For the same compound, the Drug metabolism [25] was “Metabolite_Detected”, the IC50 [26] was 8.62 µM and the IC50 [27] was 5.52 µM. The hepatocyte CLint [28] was 32 µL/min/1e6 cells, the inhibition [29] was 100% and the Activity (NOMO-1 [30]) was “Active”. For the same compound, the half-life [31] was 39.6 min, the half-life [32] was 53.4 min and the solubility thermodynamic [14] was 17 µg/mL (≈ 39.5 µM). The inhibition in vivo at 5 mg/kg (MV4-11) was 97%.
